Experimental data as given in patent publication US20260174680A1, “MAMMARY GLAND TISSUE HEALTH MAINTENANCE AGENT HAVING GABA AS ACTIVE INGREDIENT” (SANWA SHURUI CO., LTD., priority 2022, published 2026).

Experiments:
mammary gland tissue [1] = experiment: Animal experiment: E2-induced mammary gland tissue dysplasia and invasion in scid mice; assay type: in vivo; conditions: 25 days
Protocol: Ten-week-old Scid mice were intraperitoneally administered with 6 μg of E2 per day for 25 days, and were simultaneously intraperitoneally administered with 6 μg of Equol per day and/or were intraperitoneally administered with 0.5 mg (low) or 5 mg (high) of GABA per day. The fourth mammary gland was sampled 24 hours after the final administration, and photographs are shown of tissue observation by hematoxylin and eosin (H&E) staining (upper row) and Elastica van Gieson (EVG) staining (lower row).
This mouse model system that develops early stage breast cancer is an experimental system developed by the present inventors, and a system in which scid mice, which are a mouse strain with reduced DNA repair ability, are used to be administered estradiol (E2) intraperitoneally for […] to induce mammary gland tissue dysplasia. […] The present invention also uses this experimental system to evaluate the effects of GABA or the combined use of GABA and equol.
Ten-week-old scid mice were intraperitoneally administered PBS as a negative control group, 6 μg/day of E2 as a positive control group, 6 μg of E2+6 μg/day of equol (Eq) in experimental group 1, 6 μg of E2+0.5 mg/day of GABA in experimental group 2, 6 μg of E2+5 mg/day of GABA in experimental group 3, 6 μg of E 2+6 μg of Eq+0.5 mg of GABA in experimental group 4, and 6 μg of E 2+6 μg of Eq+5 mg of GABA in experimental group 5, with six mice in each group, every morning for 25 days. 24 hours after the final administration, the fourth mammary gland was sampled, and the tissue was observed by hematoxylin and eosin (H&E) staining and Elastica van Gieson (EVG) staining.
In addition, the frequency of occurrence of dysplasia in sections of the mammary gland tissue was evaluated.
Mouse (female): C. B-17/Icr-scid/scid Jel was purchased from CLEA Japan.
The E2 used was E2758 manufactured by SIGMA, the Equol (Eq) used was SML2147 manufactured by SIGMA, and the GABA used was A5835 manufactured by SIGMA.

mammary gland tissue [2] = conditions: equol intraperitoneally, with estradiol administered (Non-Patent Literature 1); cited from earlier work
MCF7 (ATCC HTB-22) cells = experiment: Cell test: E2-induced DNA double-strand break signals in MCF7 cells (P-Histone H2AX immunostaining); assay type: cell-based; conditions: 4 hours
Protocol: After MCF 7 (ATCC HTB-22) cells were cultured, and the medium was removed, 200 μL of PBS adjusted to E2-free, 10 nM of E2, or 10 nM of E2+0.3 μg/mL to 1.1 μg/mL of GABA was added to each well, and the cells were incubated at 37° C. and 5% of CO2 for 4 hours. The cells were visualized by adding a primary histone antibody, and the DNA double-strand break signals per cell were measured by observation under a microscope.
The cultured cells used were MCF7 (ATCC HTB-22). MCF7 cells were cultured for 2 days to 3 days in phenol red-free RPMI 1640 medium containing 10% of fetal bovine serum and 1 nM of E2.
The cells were passaged into phenol red-free RPMI medium containing 10% of charcoal-stripped serum (Charcoal-Stripped FBS, Thermo Fisher) and 1 nM of E 2, and seeded into an 8-well plate (SCS-N28 MAS-Coat, Matsunami) at 400 μL/well. After 1 day to 2 days, the medium on the 8-well plate was removed and replaced with serum-free, phenol red-free RPMI medium, and the cells were starved by culturing for 1 day to align the cell cycle to the G1 phase. […]
The cells were observed under a microscope, the DNA double-strand break signals per cell were measured, and statistical analysis was performed using the Mann-Whitney U-test, with p<0.05 being considered to indicate a significant difference. […]
For each experiment section, DNA double-strand break signals were counted in 100 cells.

[3] = experimental groups 1 to 5: Eq or GABA added to 6 μg/day E2 i.p.

SMILES	invasion in mammary gland tissue sections (H&E and EVG staining) (mammary gland tissue [1]; positive control: E2 only, 6 μg/day i.p.)	mammary gland tissue dysplasia (mammary gland tissue [2])	frequency of occurrence of dysplasia (average of E2-only positive control taken as 100%) (mammary gland tissue [1]; experimental group 1: 6 μg E2 + 6 μg/day equol i.p., negative control 16%)	invasion in mammary gland tissue sections (H&E and EVG staining) (mammary gland tissue [1]; [3])	DNA damage (DNA double-strand break signals per cell) (MCF7 (ATCC HTB-22) cells; 10 nM E2 + 1.1 μg/mL GABA, Mann-Whitney U-test, p<0.05)	number of DNA damages (DNA double-strand break signals per cell) (MCF7 (ATCC HTB-22) cells; 10 nM E2 + 0.3 to 1.1 μg/mL GABA)	frequency of occurrence of dysplasia (average of E2-only positive control taken as 100%) (mammary gland tissue [1]; experimental group 2: 6 μg E2 + 0.5 mg/day GABA i.p.) [%]	frequency of occurrence of dysplasia (average of E2-only positive control taken as 100%) (mammary gland tissue [1]; experimental group 3: 6 μg E2 + 5 mg/day GABA i.p.) [%]
C[C@]12CC[C@@H]3c4ccc(O)cc4CC[C@H]3[C@@H]1CC[C@@H]2O [E2, estradiol, reference compound]	showed invasion							
Oc1ccc([C@H]2COc3cc(O)ccc3C2)cc1 [Eq, equol, reference compound]		mammary gland tissue dysplasia was inhibited	approximately 58%	no invasion was observed				
NCCCC(=O)O [GABA, γ-amino butyric acid]				no invasion was observed	significantly reduced DNA damage	tended to reduce the number of DNA damages	44	37
